Laboratory results published in patent US10669314B2, “Polypeptide” (Affibody AB, priority 2014, dated 2020).

Key:
[1] = system: IL-6 trans-signaling dependent secretion of MCP-1 in HUVECs; experiment: HUVEC trans-signaling assay, MCP-1 production; type: cell-based, human; settings: fusions with ABD variant PP013, in the presence of HSA
Description: To address the trans-signaling pathway, a second assay was used. Herein, human umbilical vein endothelial cells (HUVECs) were stimulated with hIL-6 and soluble hIL-6Rα and the readout was the production of monocyte chemoattractant protein-1 (MCP-1). HUVECs (Lonza) were grown in EGM-2 bullet kit media (Lonza) and passaged in culture no more than eight times. Cells were grown until 75% confluence before use. Cells were detached using trypsin/EDTA (Lonza), resuspended and washed once in fresh medium. Next, cells were counted and dispensed into 96 well flat bottom plates at a density of 2×10^4 cells per well. Cells were cultured overnight at 37° C. in a humidified 5% CO2 atmosphere. […] The pre-mixed solutions with the test molecules and hIL-6/hIL-6Rα were then transferred to wells containing HUVECs, which were incubated for 24 h at 37° C. in a humidified 5% CO2 atmosphere. Cell free supernatant was collected after the incubation period and human MCP-1 levels were determined by sandwich ELISA using the MCP-1 Duoset ELISA development system (R&D Systems).
Half area 96-well ELISA plates were coated with anti-MCP-1 capture antibody (R&D Systems) at a concentration of 1 μg/ml. Plates were incubated overnight at 4° C., washed twice in tap water and blocked for 1 h in PBSC. […] The absorbance was measured at 450 nm using a microplate reader (Victor^3, Perkin Elmer).

[2] = system: IL-6 triggered serum amyloid-A (SAA) protein release; experiment: Serum Amyloid A (SAA) mouse model; type: in vivo; settings: 25 mg/kg s.c. 9 h before hIL-6 5 μg/kg i.p.; Balb/c mice
Description: The IL-6 targeting Z variant Z06814 (SEQ ID NO:1512) and a control Z variant Z04726 (SEQ ID NO:1535) binding an irrelevant target, were cloned and produced in fusion with the ABD variant PP013 (SEQ ID NO:1554) as described in Example 2. Four groups of Balb/c mice (n=8) were injected subcutaneously (s.c.) with various doses (0, 0.025, 2.5 or 25 mg/kg body weight) of Z06814-ABD 9 h prior to intraperitoneal (i.p.) administration of hIL-6 at 5 μg/kg (R&D Systems). A fifth group of mice (n=8) received 25 mg/kg of Z04726-ABD. Two additional control groups of mice received PBS (n=4) and 25 mg/kg of Z06814-ABD (n=8), respectively, but no subsequent IL-6 injection. After 20 h, the blood was taken by cardiac puncture and serum was collected.
Serum was assessed for the content of murine SAA by ELISA (Tridelta) according to the manufacturer's instructions. In brief, diluted serum samples were added to SAA-precoated plates together with anti-SAA-HRP. The plates were incubated for 1 h and then washed four times. TMB substrate was added for 20 min and the reaction was stopped with stop solution. The absorbance was measured at 450 nm using a microplate reader (Victor^3, Perkin Elmer).

Substance | inhibition of IL-6 mediated trans-signaling in HUVECs [1] | SAA protein levels in serum [2] [µg/mL]
Z03638: control Z variant binding an irrelevant target, tested in fusion with ABD variant PP013 [reference compound] | did not | –
Z04726-ABD: control Z variant Z04726 (SEQ ID NO:1553) binding an irrelevant target, in fusion with ABD variant PP013 [reference compound] | – | 500 to 600
